Laboratory results: US5284834A, “Adenosine functionalized congeners as cardiovascular treating agents for animals and methods for using same” (priority 1992, dated 1994)
“Also recorded” adds a separate entry of the source. Where two headings read alike, the source gives them in different places.

How the values were obtained:
[1] = molecular target: T1, Coronary A2-Adenosine Receptor (Canis lupus familiaris, UniProt P11617); assay: Coronary vasoactivity in the anesthetized, open-chest dog (intracoronary infusion; MPR from EC50); format: in vivo; settings: for coronary vasoactivity (in words): intracoronary infusion; for A2 Receptor MPR Relative to MeAdo: molar potency ratio relative to N6-methyladenosine (set equal to 1.0); for A2 Receptor MPR Relative to MeAdo / A2 Receptor MPR Relative to Ado: coronary; for A2 Receptor MPR Relative to Ado: molar potency ratio: EC50 of adenosine divided by that of the analogue; for A2/A1 potency ratio (MPR(A2)/MPR(A1)): ratio of MPR (MeAdo) at dog coronary A2 receptor to MPR at rat brain A1 receptor; for A2 versus A1 receptor selectivity (in words): dog coronary A2 versus rat brain A1
T1 construct: The assay of coronary vasoactivity in the anesthetized, open-chest dog; from tissue; host or cells: coronary vessels in situ, anesthetized open-chest dog
Text: (§1) In the present invention there is compared the A1 - and A2 -potencies of a series of long-chain derivatives of adenosine suitable for attachment to "carriers," such as peptides or proteins, and for immobilization to polymeric matrices for affinity chromatography of adenosine receptors. The method employed is a comparison of increasing coronary blood flow via activation of an A2 -adenosine receptor versus an A1 -binding assay in rat brain.
(§2) The potencies at A2 -receptors (Table 1) are expressed as a molar potency ratio of the EC50 value of adenosine divided by that of the adenosine analogue. A common reference compound on which to base molar potency ratios was needed to facilitate comparison of activities at A1 and A2 receptors. Adenosine itself cannot be used as a reference in the A1 binding assay since treatment of the membranes with adenosine deaminase is essential. […] Thus, MeAdo was used as a suitable reference compound.
The assay of coronary vasoactivity in the anesthetized, open-chest dog, is described by Kusachi et al, J. Med. Chem., in press, and Olsson, et al, J. Circ. […] The assay estimates an EC-50, the concentration of analogue which produces a half maximum change in coronary conductance (reciprocal resistance). To reduce between-animal variability activity is expressed as a molar potency ratio (MPR) the value of the EC-50 of adenosine divided by that of the analogue. Owing to the low water solubility of some of the analogues, solutions for intracoronary infusion were prepared by diluting stock solutions in dimethyl sulfoxide. In such instances, solutions of adenosine used to establish a standard of potency also contained dimethyl sulfoxide. […]

[2] = test system: A1-receptors; settings: background; cited from earlier work
[3] = test system: A2-receptors; settings: background; cited from earlier work
[4] = molecular target: T2, Brain A1-adenosine receptor (Rattus norvegicus, UniProt P25099); assay: A1-binding assay: antagonism of binding of 1nM [3H]N6-cyclohexyladenosine to rat cerebral cortical membranes; settings: for A1 Receptor MPR Relative to MeAdo: molar potency ratio derived from Ki values, rat cerebral cortical membranes
T2 construct: -cyclohexyladenosine to rat cerebral cortical membranes; from tissue; host or cells: rat cerebral cortical membranes
T2 sequence (P25099 1-326): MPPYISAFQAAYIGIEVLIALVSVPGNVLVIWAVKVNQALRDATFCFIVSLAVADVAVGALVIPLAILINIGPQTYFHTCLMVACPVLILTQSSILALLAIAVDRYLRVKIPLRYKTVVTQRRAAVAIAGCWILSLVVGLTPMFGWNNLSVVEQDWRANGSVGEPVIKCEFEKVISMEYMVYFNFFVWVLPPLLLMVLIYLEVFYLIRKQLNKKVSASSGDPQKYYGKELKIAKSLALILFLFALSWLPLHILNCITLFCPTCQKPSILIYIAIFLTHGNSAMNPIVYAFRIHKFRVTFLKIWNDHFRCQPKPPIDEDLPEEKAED
Text: as §1
^b Molar potency ratio relative to adenosine, derived from Ki
values for antagonism of binding of 1nM [^3 H]N^6
-cyclohexyladenosine to rat cerebral cortical membranes.
as §2

[5] = Octanol water partition coefficients; format: physicochemical; settings: for logP: octanol water, read-out: octanol water partition coefficient
Text: B. Certain of the conjugates have ionizable groups on the attached chain. These groups alter the biodistribution of the compounds and make them less likely to enter the brain and produce central depressant effects. The effect of charged groups is reflected in octanol water partition coefficients as follows: […]

[6] = Entry into the brain and central side effects; settings: in vivo
[7] = molecular target: T3, A2-adenosine receptor (adenylate cyclase, human platelet membranes) (Homo sapiens, UniProt P29274); assay: Stimulation of adenylate cyclase in human platelet membranes; format: biochemical
T3 construct: stimulation of adenylate cyclase in human platelet membranes; from tissue; host or cells: human platelet membranes
T3 sequence (P29274 whole entry): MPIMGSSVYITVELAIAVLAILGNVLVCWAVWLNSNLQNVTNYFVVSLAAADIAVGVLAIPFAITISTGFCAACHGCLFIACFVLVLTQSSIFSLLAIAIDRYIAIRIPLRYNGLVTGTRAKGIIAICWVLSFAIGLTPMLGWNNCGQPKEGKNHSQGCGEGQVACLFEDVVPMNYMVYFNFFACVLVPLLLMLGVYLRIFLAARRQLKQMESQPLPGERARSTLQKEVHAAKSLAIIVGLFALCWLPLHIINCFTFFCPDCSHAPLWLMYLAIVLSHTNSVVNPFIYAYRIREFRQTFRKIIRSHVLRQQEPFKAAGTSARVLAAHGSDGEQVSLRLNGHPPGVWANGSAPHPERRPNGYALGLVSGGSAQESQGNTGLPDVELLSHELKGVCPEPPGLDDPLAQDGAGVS

T1 sequence (P11617 whole entry, the tested form may be a part): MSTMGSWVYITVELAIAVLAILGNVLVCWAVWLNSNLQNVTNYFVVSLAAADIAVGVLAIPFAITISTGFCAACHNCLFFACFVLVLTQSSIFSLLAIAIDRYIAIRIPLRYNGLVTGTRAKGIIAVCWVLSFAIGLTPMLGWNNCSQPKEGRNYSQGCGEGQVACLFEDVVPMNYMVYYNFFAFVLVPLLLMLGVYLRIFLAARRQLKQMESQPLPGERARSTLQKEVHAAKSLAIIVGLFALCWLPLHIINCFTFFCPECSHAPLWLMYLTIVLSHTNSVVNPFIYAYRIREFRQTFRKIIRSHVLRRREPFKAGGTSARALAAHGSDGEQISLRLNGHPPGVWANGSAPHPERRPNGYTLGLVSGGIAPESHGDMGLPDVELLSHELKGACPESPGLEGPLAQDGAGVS

Row | A2 Receptor MPR Relative to MeAdo ([1]; dog) | A2 Receptor MPR Relative to Ado ([1]; dog) | A2/A1 potency ratio (MPR(A2)/MPR(A1)) [1] | A1 Receptor MPR Relative to MeAdo [4] | Compound | coronary vasoactivity (in words) ([1]; dog) | other results
1 | – | – | – | 0.29 | O=C(O)Cc1ccc(Nc2ncnc3c2ncn3[C@@H]2O[C@H](CO)[C@@H](O)[C@H]2O)cc1 [Compound 8, N^6-(4-carboxymethylphenyl)adenosine] | only weakly active | % increase in flow over control ([1]; @ 21 μM plasma nucleoside concentration achieved during infusion): 27%; polarity compared with compound 4 [5]: considerably more polar than 4; logP [5]: < -1.4; A1-binding activity (in words) [4]: only weakly active; IC50 ([7]; human platelet membranes, read-out: IC50 (printed lC50), stimulation of adenylate cyclase): 26 µM
2 | 42 | 2.1 ± 1.3 | 1.2 | 35 | Cc1ccc(NC(=O)Cc2ccc(Nc3ncnc4c3ncn4[C@@H]3O[C@H](CO)[C@@H](O)[C@H]3O)cc2)cc1 [Compound 10] | enhanced activity at both receptor subtypes | A1-binding activity (in words) [4]: enhanced activity at both receptor subtypes
3 | 60 | 3.0 ± 0.7 | greater than 10 | 3.3 | COC(=O)[C@H](Cc1ccc(NC(=O)Cc2ccc(Nc3ncnc4c3ncn4[C@@H]3O[C@H](CO)[C@@H](O)[C@H]3O)cc2)cc1)NC(=O)C(F)(F)F [Compound 11] | – | A2/A1 potency ratio (MPR(A2)/MPR(A1)) ([1]; listed as drawing 6): 18
4 | 88 | 4.4 ± 0.4 | greater than 10 | 4.6 | CNC(=O)CNC(=O)[C@H](Cc1ccc(NC(=O)Cc2ccc(Nc3ncnc4c3ncn4[C@@H]3O[C@H](CO)[C@@H](O)[C@H]3O)cc2)cc1)NC(=O)OC(C)(C)C [Compound 12] | – | A2/A1 potency ratio (MPR(A2)/MPR(A1)) ([1]; listed as drawing 7): 19
5 | 64 | 33.2 ± 1.6 | 2.7 | 24 | COC(=O)Cc1ccc(NC(=O)Cc2ccc(Nc3ncnc4c3ncn4[C@@H]3O[C@H](CO)[C@@H](O)[C@H]3O)cc2)cc1 [Compound 13] | – | –
6 | ≥ 100 | 7.2 ± 1443 | – | 9.0 | CNC(=O)Cc1ccc(NC(=O)Cc2ccc(Nc3ncnc4c3ncn4[C@@H]3O[C@H](CO)[C@@H](O)[C@H]3O)cc2)cc1 [Compound 14] | three most active analogues | A2 versus A1 receptor selectivity (in words) [1]: highly divergent at A1 and A2 receptors
7 | 70 | 3.5 ± 0.8 | 5.3 | 13 | NNC(=O)Cc1ccc(NC(=O)Cc2ccc(Nc3ncnc4c3ncn4[C@@H]3O[C@H](CO)[C@@H](O)[C@H]3O)cc2)cc1 [Compound 15] | – | –
8 | 56 | 2.8 ± 0.1 | 4.2 | 13 | O=C(CCc1ccc(O)cc1)NCCNC(=O)Cc1ccc(NC(=O)Cc2ccc(Nc3ncnc4c3ncn4[C@@H]3O[C@H](CO)[C@@H](O)[C@H]3O)cc2)cc1 [Compound 17] | – | –
9 | 60 | 3.0 ± 0.2 | – | 5.5 | O=C(CCCC[C@@H]1SC[C@@H]2NC(=O)N[C@@H]21)NCCNC(=O)Cc1ccc(NC(=O)Cc2ccc(Nc3ncnc4c3ncn4[C@@H]3O[C@H](CO)[C@@H](O)[C@H]3O)cc2)cc1 [Compound 18] | – | A2 versus A1 receptor selectivity (in words) [1]: highly divergent at A1 and A2 receptors

The remaining lines, values behind:

Row | Compound | A2 Receptor MPR Relative to MeAdo ([1]; dog) | A2 Receptor MPR Relative to Ado ([1]; dog) | A2/A1 potency ratio (MPR(A2)/MPR(A1)) [1] | A1 Receptor MPR Relative to MeAdo [4] | coronary vasoactivity (in words) ([1]; dog) | other results
10 | CCNC(=O)[C@H]1O[C@@H](n2cnc3c(N)ncnc32)[C@H](O)[C@@H]1O [Compound 1, N-Ethyladenosine-5'-uronamide] | – | – | – | – | exceptionally potent | order of potency at A1-receptors [2]: R-PIA, CHA>NECA>S-PIA; potency at A2-receptors (rank in words) [3]: clearly the most potent
11 | Nc1nc(Cl)nc2c1ncn2[C@@H]1O[C@H](CO)[C@@H](O)[C@H]1O [Compound 2, 2-Chloroadenosine, reference compound] | 540 | 27 | 54 | 10 | – | –
12 | CNc1ncnc2c1ncn2[C@@H]1O[C@H](CO)[C@@H](O)[C@H]1O [Compound 3, N^6 -methyladenosine, reference compound] | 1.0 | 0.05 | 1.0 | 1.0 | – | fold weaker than adenosine at A2-receptors ([1]; dog, in vivo): ≥ 20 -fold; fold weaker than adenosine at A1-receptors [4]: at least 10 -fold
13 | C[C@H](Cc1ccccc1)Nc1ncnc2c1ncn2[C@@H]1O[C@H](CO)[C@@H](O)[C@H]1O [Compound 4, N^6 -R-1-Phenyl-2-propyladenosine] | – | – | – | – | – | logP [5]: 2; order of potency at A1-receptors [2]: R-PIA, CHA>NECA>S-PIA; brain entry [6]: enters the brain; central side effects [6]: produces central side effects
14 | OC[C@H]1O[C@@H](n2cnc3c(NC4CCCCC4)ncnc32)[C@H](O)[C@@H]1O [Compound 5, N^6 -cyclohexyladenosine] | – | – | – | – | – | order of potency at A1-receptors [2]: R-PIA, CHA>NECA>S-PIA
15 | OC[C@H]1O[C@@H](n2cnc3c(Nc4ccccc4)ncnc32)[C@H](O)[C@@H]1O [Compound 6, N^6 -phenyladenosine, reference compound] | 28 | 1.4 | 1.6 | 18 | can exhibit some activity at this A2 -receptor | –
16 | Cc1ccc(Nc2ncnc3c2ncn3[C@@H]2O[C@H](CO)[C@@H](O)[C@H]2O)cc1 [Compound 7, N^6 -p-tolyladenosine, reference compound] | 27 | 1.35 | 1.1 | 24 | can exhibit some activity at this A2 -receptor | –
17 | CNC(=O)Cc1ccc(Nc2ncnc3c2ncn3[C@@H]2O[C@H](CO)[C@@H](O)[C@H]2O)cc1 [Compound 9] | – | – | – | – | enhanced activity at both receptor subtypes | –
18 | NCCNC(=O)Cc1ccc(NC(=O)Cc2ccc(Nc3ncnc4c3ncn4[C@@H]3O[C@H](CO)[C@@H](O)[C@H]3O)cc2)cc1 [Compound 16] | – | 7.8 ± 2.5 | – | – | three most active analogues; also recorded: high efficacy as a coronary vasodilator | polarity compared with compound 4 [5]: considerably more polar than 4; logP [5]: -0.81; IC50 [7]: 0.98 µM
19 | C[C@@H](Cc1ccccc1)Nc1ncnc2c1ncn2[C@@H]1O[C@H](CO)[C@@H](O)[C@H]1O [S-PIA] | – | – | – | – | – | order of potency at A1-receptors [2]: R-PIA, CHA>NECA>S-PIA
20 | Avidin | – | – | – | – | lacked coronary vasoactivity | –
